# Experimental data as given in patent US7550469B2, “Heterocyclic amide derivatives and their use as dopamine D3 receptor ligands” (Aventis Pharmaceuticals Inc., priority 2001, dated 2009).
# Where two headings read alike, the source gives them in different places.
# Target: T1, cloned human dopamine D3 receptors (Homo sapiens, UniProt P35462)
# T1 construct: expressed in transfected cells; membrane homogenate
# Test: [N-Methyl-3H]Spiroperidol binding to cloned human dopamine D3 receptors (Protocol 1)
# How it was run: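 Radioligand displacement with [N-methyl-3H]spiroperidol used a physiological-salt Tris buffer (0.05 M, pH 7.7; NaCl 120 mM, KCl 5 mM, CaCl2 2 mM, MgCl2 1 mM) and membranes of a high-expressing stable CHO clone carrying human D3. Total ligand concentration came from measured added CPM; 0.1% ascorbic acid was optional for oxidizable compounds.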
# [1] = the 13th table, unit inferred, read-out: D3Ki
# [2] = the 14th table, read-out: D3 Ki
# [3] = the 15th table, read-out: D3 Ki
# [4] = the 16th table, read-out: D3 Ki
# [5] = the 19th table, read-out: D3 Ki
# T1 sequence (P35462 whole entry): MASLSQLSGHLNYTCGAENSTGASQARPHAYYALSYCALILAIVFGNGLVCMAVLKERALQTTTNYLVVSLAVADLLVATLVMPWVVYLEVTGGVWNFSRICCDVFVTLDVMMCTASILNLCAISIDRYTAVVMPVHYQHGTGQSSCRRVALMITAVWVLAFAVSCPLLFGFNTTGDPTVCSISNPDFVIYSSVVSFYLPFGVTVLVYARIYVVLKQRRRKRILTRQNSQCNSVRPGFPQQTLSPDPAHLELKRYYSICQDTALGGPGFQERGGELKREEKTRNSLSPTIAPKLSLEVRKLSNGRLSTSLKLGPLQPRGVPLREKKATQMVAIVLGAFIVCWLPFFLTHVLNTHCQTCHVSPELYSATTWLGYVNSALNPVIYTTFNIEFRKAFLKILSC
smiles,measurement,setting,value
O=C(NCCCCCN1CCC(c2noc3ccsc23)CC1)c1ccc(F)cc1 [compound 816217],Ki,[1],364 nM
CCCCc1ccc(C(=O)NCCCCCN2CCC(c3noc4ccsc34)CC2)cc1 [compound 816218],Ki,[1],316 nM
CCCCCCc1ccc(C(=O)NCCCCCN2CCC(c3noc4ccsc34)CC2)cc1 [compound 816219],Ki,[1],132 nM
O=C(NCCCCCCN1CCN(c2csc3cc(C(F)(F)F)ccc23)CC1)c1cc2ccccc2[nH]1 [compound 816315],Ki,"Table 2, read-out: D3K1",3.7 nM
same,Ki,read-out: D3K1,3.7 nM
same,Ki,[2],3.7 nM
O=C(NCCCCCCN1CCN(c2csc3cc(C(F)(F)F)ccc23)CC1)c1ccc2[nH]ccc2c1 [compound 816316],Ki,"Table 2, read-out: D3K1",2.7 nM
same,Ki,read-out: D3K1,2.7 nM
same,Ki,[2],2.7 nM
O=C(NCCCCN1C2CCC1CC(c1noc3cc(F)ccc13)C2)c1cccs1 (centres unmarked) [compound 816323],Ki,[3],832 nM
CCCCOc1ccc(C(=O)NCCCCN2C3CCC2CC(c2noc4cc(F)ccc24)C3)cc1 (centres unmarked) [compound 816325],Ki,[3],58.3 nM
O=C(NCCCCN1C2CCC1CC(c1noc3cc(F)ccc13)C2)c1ccc(C(F)(F)F)cc1 (centres unmarked) [compound 816326],Ki,[3],223 nM
O=C(Cc1ccccc1)NCCCCN1C2CCC1CC(c1noc3cc(F)ccc13)C2 (centres unmarked) [compound 816327],Ki,[3],392 nM
O=C(NCCCCN1C2CCC1CC(c1noc3cc(F)ccc13)C2)c1cccc(F)c1F (centres unmarked) [compound 816329],Ki,[3],356 nM
O=C(NCCCCN1C2CCC1CC(c1noc3cc(F)ccc13)C2)c1cccc2ccccc12 (centres unmarked) [compound 816330],Ki,[3],186 nM
O=C(NCCCCN1C2CCC1CC(c1noc3cc(F)ccc13)C2)c1ccc(-c2ccccc2)cc1 (centres unmarked) [compound 816331],Ki,[3],44.2 nM
COc1ccc(C(=O)NCCCCN2C3CCC2CC(c2noc4cc(F)ccc24)C3)cc1OC (centres unmarked) [compound 816332],Ki,[3],588 nM
O=C(NCCCCN1C2CCC1CC(c1noc3cc(F)ccc13)C2)c1ccc(F)cc1 (centres unmarked) [compound 816333],Ki,[3],474 nM
O=C(NCCCCN1C2CCC1CC(c1noc3cc(F)ccc13)C2)c1cc2ccccc2s1 (centres unmarked) [compound 816334],Ki,[3],64.6 nM
O=C(NCCCCN1C2CCC1CC(c1noc3cc(F)ccc13)C2)c1ccc(Br)cc1 (centres unmarked) [compound 816335],Ki,[3],268 nM
CSc1ncccc1C(=O)NCCCCN1C2CCC1CC(c1noc3cc(F)ccc13)C2 (centres unmarked) [compound 816338],Ki,[3],692 nM
O=C(NCCCCN1C2CCC1CC(c1noc3cc(F)ccc13)C2)c1ccccc1C(F)(F)F (centres unmarked) [compound 816340],Ki,[3],427 nM
CCCc1ccc(C(=O)NCCCCN2C3CCC2CC(c2noc4cc(F)ccc24)C3)cc1 (centres unmarked) [compound 816341],Ki,[3],50.9 nM
COc1ccccc1C(=O)NCCCCN1C2CCC1CC(c1noc3cc(F)ccc13)C2 (centres unmarked) [compound 816343],Ki,[3],344 nM
Cc1ccc(C(=O)NCCCCN2C3CCC2CC(c2noc4cc(F)ccc24)C3)cc1 (centres unmarked) [compound 816344],Ki,[3],378 nM
CCCCCCc1ccc(C(=O)NCCCCN2C3CCC2CC(c2noc4cc(F)ccc24)C3)cc1 (centres unmarked) [compound 816345],Ki,[3],95.6 nM
O=C(NCCCCN1C2CCC1CC(c1noc3ccccc13)C2)c1cccs1 (centres unmarked) [compound 816519],Ki,[3],305 nM
O=C(NCCCCN1C2CCC1CC(c1noc3ccccc13)C2)c1ccc(F)cc1 (centres unmarked) [compound 816520],Ki,[3],292 nM
O=C(Cc1cccs1)NCCCCN1C2CCC1CC(c1noc3ccccc13)C2 (centres unmarked) [compound 816521],Ki,[3],328 nM
O=C(NCCCCN1C2CCC1CC(c1noc3ccccc13)C2)c1ccccc1C(F)(F)F (centres unmarked) [compound 816522],Ki,[3],240 nM
O=C(NCCCCN1C2CCC1CC(c1noc3ccccc13)C2)c1ccc(Cl)cc1 (centres unmarked) [compound 816523],Ki,[3],165 nM
O=C(NCCCCN1C2CCC1CC(c1noc3ccccc13)C2)C1CCCCC1 (centres unmarked) [compound 816524],Ki,[3],357 nM
COc1ccccc1C(=O)NCCCCN1C2CCC1CC(c1noc3ccccc13)C2 (centres unmarked) [compound 816525],Ki,[3],148 nM
Cc1ccc(C(=O)NCCCCN2C3CCC2CC(c2noc4ccccc24)C3)cc1 (centres unmarked) [compound 816526],Ki,[3],375 nM
CCCCCCc1ccc(C(=O)NCCCCN2C3CCC2CC(c2noc4ccccc24)C3)cc1 (centres unmarked) [compound 816527],Ki,[3],64.8 nM
O=C(NCCCCN1C2CCC1CC(c1noc3ccccc13)C2)c1ccccc1 (centres unmarked) [compound 816528],Ki,[3],299 nM
CCCCOc1ccc(C(=O)NCCCCN2C3CCC2CC(c2noc4ccccc24)C3)cc1 (centres unmarked) [compound 816529],Ki,[3],42.5 nM
O=C(NCCCCN1C2CCC1CC(c1noc3ccccc13)C2)c1ccc(C(F)(F)F)cc1 (centres unmarked) [compound 816530],Ki,[3],110 nM
Cc1ccccc1C(=O)NCCCCN1C2CCC1CC(c1noc3ccccc13)C2 (centres unmarked) [compound 816531],Ki,[3],299 nM
O=C(NCCCCN1C2CCC1CC(c1noc3ccccc13)C2)c1ccc(-c2ccccc2)cc1 (centres unmarked) [compound 816532],Ki,[3],56.8 nM
COc1ccc(C(=O)NCCCCN2C3CCC2CC(c2noc4ccccc24)C3)cc1 (centres unmarked) [compound 816534],Ki,[3],149 nM
O=C(NCCCCN1C2CCC1CC(c1noc3ccccc13)C2)c1cc2ccccc2s1 (centres unmarked) [compound 816535],Ki,[3],66.4 nM
O=C(NCCCCN1C2CCC1CC(c1noc3ccccc13)C2)c1ccc(Br)cc1 (centres unmarked) [compound 816536],Ki,[3],140 nM
O=C(NCCCCN1C2CCC1CC(c1noc3ccccc13)C2)c1ccccc1[N+](=O)[O-] (centres unmarked) [compound 816537],Ki,[3],411 nM
O=C(NCCCCN1C2CCC1CC(c1noc3ccccc13)C2)c1cccc2ccccc12 (centres unmarked) [compound 816538],Ki,[3],178 nM
O=C(NCCCCN1C2CCC1CC(c1noc3ccccc13)C2)c1cccc(F)c1F (centres unmarked) [compound 816540],Ki,[3],225 nM
CSc1ncccc1C(=O)NCCCCN1C2CCC1CC(c1noc3ccccc13)C2 (centres unmarked) [compound 816541],Ki,[3],511 nM
Nc1ccc(C(=O)NCCCCN2CCCN(c3csc4cc(F)ccc34)CC2)cc1 [compound 817258],Ki,"Table 2, read-out: D3K1",3.13 nM
same,Ki,[4],3.13 nM
Nc1cc2ccccc2cc1C(=O)NCCCCN1CCCN(c2csc3cc(F)ccc23)CC1 [compound 817259],Ki,"Table 2, read-out: D3K1",2.93 nM
same,Ki,[4],2.93 nM
O=C(NCCCCN1CCCN(c2csc3cc(F)ccc23)CC1)c1ccc2ncccc2c1 [compound 817262],Ki,"Table 2, read-out: D3K1",1.89 nM
same,Ki,[4],1.89 nM
CN(C)c1ccc(C(=O)c2ccccc2C(=O)NCCCCN2CCCN(c3csc4cc(F)ccc34)CC2)cc1 [compound 817263],Ki,"Table 2, read-out: D3K1",331 nM
same,Ki,[4],331 nM
Nc1ccc(O)cc1C(=O)NCCCCN1CCCN(c2csc3cc(F)ccc23)CC1 [compound 817264],Ki,"Table 2, read-out: D3K1",6.44 nM
same,Ki,[4],6.44 nM
NS(=O)(=O)c1cc(C(=O)NCCCCN2CCCN(c3csc4cc(F)ccc34)CC2)c(O)c2ccccc12 [compound 817265],Ki,"Table 2, read-out: D3K1",46 nM
same,Ki,[4],46 nM
O=C(NCCCCN1CCCN(c2csc3cc(F)ccc23)CC1)c1cccc2cccnc12 [compound 817266],Ki,"Table 2, read-out: D3K1",8.73 nM
same,Ki,[4],8.73 nM
CCNc1ccccc1C(=O)NCCCCN1CCCN(c2csc3cc(F)ccc23)CC1 [compound 817267],Ki,"Table 2, read-out: D3K1",3.03 nM
same,Ki,[4],3.03 nM
CN(C)c1cccc(C(=O)NCCCCN2CCCN(c3csc4cc(F)ccc34)CC2)c1 [compound 817268],Ki,"Table 2, read-out: D3K1",7.1 nM
same,Ki,[4],7.1 nM
CN(C)c1ccccc1C(=O)NCCCCN1CCCN(c2csc3cc(F)ccc23)CC1 [compound 817269],Ki,"Table 2, read-out: D3K1",4.74 nM
same,Ki,[4],4.74 nM
O=C(NCCCCN1CCCN(c2csc3cc(F)ccc23)CC1)c1cc2cc(O)ccc2[nH]1 [compound 817270],Ki,[1],0.448 nM
CC(C)(C)OC(=O)Cn1c(C(=O)NCCCCN2CCCN(c3csc4cc(F)ccc34)CC2)cc2ccccc21 [compound 817271],Ki,"Table 2, read-out: D3K1",326 nM
same,Ki,[4],326 nM
NS(=O)(=O)c1ccc(C(=O)NCCCCN2CCCN(c3csc4cc(F)ccc34)CC2)cc1 [compound 817276],Ki,"Table 2, read-out: D3K1",2.44 nM
same,Ki,[4],2.44 nM
O=C(NCCCCN1CCCN(c2csc3cc(F)ccc23)CC1)c1cccs1 [compound 822149],Ki,[1],2.7 nM
O=C(NCCCCN1CCCN(c2csc3cc(F)ccc23)CC1)c1ccc(Cl)cc1 [compound 822150],Ki,[1],6.3 nM
O=C(NCCCCN1CCCN(c2csc3cc(F)ccc23)CC1)c1cccc2ccccc12 [compound 822153],Ki,[1],6.1 nM
O=C(NCCCCN1CCCN(c2csc3cc(F)ccc23)CC1)c1cccc(C(F)(F)F)c1 [compound 822155],Ki,[1],10.8 nM
O=C(NCCCCN1CCCN(c2csc3cc(F)ccc23)CC1)c1ccc2ccccc2c1 [compound 822156],Ki,[1],0.67 nM
O=C(NCCCCN1CCCN(c2csc3cc(F)ccc23)CC1)c1cc2ccccc2s1 [compound 822158],Ki,[1],1.1 nM
O=C(Nc1cccc(CN2CCN(c3csc4cc(F)ccc34)CC2)c1)c1cccs1 [compound 822159],Ki,[5],96.7 nM
COc1cc(OC)cc(C(=O)Nc2cccc(CN3CCN(c4csc5cc(F)ccc45)CC3)c2)c1 [compound 822161],Ki,[5],163 nM
O=C(Nc1cccc(CN2CCN(c3csc4cc(F)ccc34)CC2)c1)c1ccc(OC(F)(F)F)cc1 [compound 822162],Ki,[5],380 nM
O=C(Nc1cccc(CN2CCN(c3csc4cc(F)ccc34)CC2)c1)c1cccc(F)c1 [compound 822164],Ki,[5],167 nM
COc1ccc(C(=O)Nc2cccc(CN3CCN(c4csc5cc(F)ccc45)CC3)c2)cc1OC [compound 822180],Ki,[5],26.5 nM
COc1cccc(C(=O)Nc2cccc(CN3CCN(c4csc5cc(F)ccc45)CC3)c2)c1 [compound 822181],Ki,[5],332 nM
Cc1ccccc1C(=O)Nc1cccc(CN2CCN(c3csc4cc(F)ccc34)CC2)c1 [compound 822183],Ki,[5],154 nM
O=C(Nc1cccc(CN2CCN(c3csc4cc(F)ccc34)CC2)c1)c1cnc2ccccc2n1 [compound 822184],Ki,[5],271 nM
O=C(Nc1cccc(CN2CCN(c3csc4cc(F)ccc34)CC2)c1)c1ccncc1 [compound 822185],Ki,[5],50.7 nM
O=C(Nc1cccc(CN2CCN(c3csc4cc(F)ccc34)CC2)c1)c1cccnc1Cl [compound 822186],Ki,[5],50.4 nM
COc1ccc(C(=O)NCc2ccccc2CN2CCN(c3csc4cc(F)ccc34)CC2)cc1OC [compound 822188],Ki,[5],140 nM
